PMC9709406 (Frontiers in Pharmacology, 2022)
Where “and” joins values, the source holds several entries; their conditions need not be identical. Equal entries are not always repeated. Where two headings read alike, the source gives them in different places.

Key:
H1650 cells = test: MTT assay for cell proliferation and cytotoxicity, H1650; format: cell-based; conditions: Homo sapiens, NCI-H1650, 48 h, H1650, n = 5
Description: (§1) The human cancer cells (H1650, H1975, KYSE70, KYSE410 and KYSE450) were purchased from the Type Culture Collection of the Chinese Academy of Sciences (Shanghai, China). The human immortalized normal esophageal epithelial cell line SHEE was donated by Dr. Enmin Li from the Laboratory of Tumor Pathology (Shantou University Medical College, Shantou, Guangdong, China). Drug-resistant cells (H1650TR, H1975OR, KYSE70TR, KYSE410TR and KYSE450TR) were induced by China-US (Henan) Hormel Cancer Institute. The cellswere cultured in RPMI-1640 complete growth medium containing 100 U/mL penicillin-streptomycin and 10% FBS. Based on the above medium formula, 100 nm/L paclitaxel was added in taxol-resistant cells, 100 nm/L gefitinib was added in gefitinib-resistant cells. The cells were incubated at 37 °C in an atmosphere containing 5% of CO2. The compounds were dissolved in DMSO to make a 50 mM stock solution and were diluted to the concentration of working solutions with complete growth medium before administration.
(§2) Cells were seeded in 96-well plates with 2,200–2,500 cells/well in100 μL. One day after seeding, test compounds with the concentration between 0 and 50 μM were added with 0.1% DMSO as control. Five multiple wells for each concentration. After 48 h, MTT was added and incubated in the plate for 1–4 h in the incubator. The absorbance at 490 nm was measured using a microplate reader (Thermo).

H1975 cells = test: MTT assay for cell proliferation and cytotoxicity, H1975; format: cell-based, human; conditions: Homo sapiens, NCI-H1975, 48 h, MTT, 48 h, H1975, n = 5; read-out: IC50 48 h H1975
Description: as §1
(§3) Cells were seeded in 96-well plates with 2,200–2,500 cells/well in100 μL. One day after seeding, test compounds with the concentration between 0 and 50 μM were added with 0.1% DMSO as control. Five multiple wells for each concentration. […] The absorbance at 490 nm was measured using a microplate reader (Thermo).

SHEE cells = test: MTT assay, normal esophageal epithelial cell line SHEE; format: cell-based; conditions: Homo sapiens, 48 h, n = 5
Description: as §1, §2

KYSE70 cells = test: MTT assay, KYSE70; format: cell-based, human; conditions: for IC50: Homo sapiens, KYSE-70, MTT, 48 h, KYSE70, n = 5
Description: as §1, §2

KYSE410 cells = test: MTT assay, KYSE410; format: cell-based, human; conditions: for IC50: Homo sapiens, 48 h
Description: as §1, §2

KYSE450 cells = test: MTT assay, KYSE450; format: cell-based, human; conditions: for IC50: Homo sapiens, KYSE-450, MTT, 48 h, KYSE450, n = 5, read-out: IC50 48 h KYSE450; for absorbance 490 nm, single well / mean absorbance 490 nm (row G) / mean absorbance 490 nm minus background (row H): KYSE450
Description: as §1, §2

KYSE70TR cells = test: MTT assay, taxol-resistant KYSE70TR; format: cell-based, human; conditions: Homo sapiens, KYSE 70 TR, MTT, resistance-inducing drug (taxol)
Description: as §1, §3

KYSE410TR cells = test: MTT assay, taxol-resistant KYSE410TR; format: cell-based, human; conditions: Homo sapiens, KYSE 410 TR, MTT, resistance-inducing drug (taxol)
Description: as §1, §3

KYSE450TR cells = test: MTT assay, taxol-resistant KYSE450TR; format: cell-based, human; conditions: Homo sapiens, KYSE 450 TR, MTT, resistance-inducing drug (taxol)
Description: as §1, §3

[1] = KYSE-410, MTT, KYSE410, n = 5, read-out: IC50 48 h KYSE410
[2] = concentration 12.5 (unit not given)
[3] = concentration 25 (unit not given)
[4] = concentration 50 (unit not given)
[5] = concentration 100 (unit not given)

## Brc1cccc(Cn2cc(-c3cccc(Nc4ncnc5cc6c(cc45)OCCOCCOCCO6)c3)nn2)c1 [compound 3q]
H1650 cells
  IC50: 21.5 ± 1.87 µM
H1975 cells
  IC50: 47.3 ± 2.13 µM
SHEE cells
  IC50: > 50 µM
KYSE70 cells
  IC50: 20.7 ± 1.73 µM
KYSE410 cells; [1]
  IC50: > 50 µM
KYSE450 cells
  IC50: 21.8 ± 1.12 µM
other
  melting point: 113 to 116 °C

## c1ccc(Cn2cc(-c3cccc(Nc4ncnc5cc6c(cc45)OCCOCCOCCO6)c3)nn2)cc1 [compound 3r]
H1650 cells
  IC50: 19.6 ± 1.72 µM
H1975 cells
  IC50: 19.2 ± 1.59 µM
SHEE cells
  IC50: 21 ± 1.11 µM
KYSE70 cells
  IC50: 7.32 ± 0.62 µM
KYSE70 cells; KYSE70, concentration 12.5
  blank-corrected absorbance 490 nm relative to control (fraction): 0.2722
  inhibition (1 minus fraction of control): 0.7278
KYSE70 cells; KYSE70, concentration 25
  blank-corrected absorbance 490 nm relative to control (fraction): 0.1457
  inhibition (1 minus fraction of control): 0.8543
KYSE70 cells; KYSE70, concentration 50
  blank-corrected absorbance 490 nm relative to control (fraction): 0.1803
  inhibition (1 minus fraction of control): 0.8197
KYSE70 cells; KYSE70, concentration 100
  blank-corrected absorbance 490 nm relative to control (fraction): 0.1267
  inhibition (1 minus fraction of control): 0.8733
KYSE410 cells; [1]
  IC50: 9.23 ± 0.97 µM
KYSE410 cells; KYSE410, concentration 12.5
  blank-corrected absorbance 490 nm relative to control (fraction): 0.3227
  inhibition (1 minus fraction of control): 0.6773
KYSE410 cells; KYSE410, concentration 25
  blank-corrected absorbance 490 nm relative to control (fraction): 0.3216
  inhibition (1 minus fraction of control): 0.6784
KYSE410 cells; KYSE410, concentration 50
  blank-corrected absorbance 490 nm relative to control (fraction): 0.3502
  inhibition (1 minus fraction of control): 0.6498
KYSE410 cells; KYSE410, concentration 100
  blank-corrected absorbance 490 nm relative to control (fraction): 0.1592
  inhibition (1 minus fraction of control): 0.8408
KYSE450 cells
  IC50: 28.1 ± 1.18 µM
KYSE450 cells; [2]
  absorbance 490 nm, single well: 0.6476 and 0.598 and 0.6398 and 0.6662
  mean absorbance 490 nm (row G): 0.6379
  mean absorbance 490 nm minus background (row H): 0.586
KYSE450 cells; [3]
  absorbance 490 nm, single well: 0.4195 and 0.4416 and 0.4375 and 0.4182
  mean absorbance 490 nm (row G): 0.4292
  mean absorbance 490 nm minus background (row H): 0.3773
KYSE450 cells; [4]
  absorbance 490 nm, single well: 0.1593 and 0.152 and 0.1434
  mean absorbance 490 nm (row G): 0.1516
  mean absorbance 490 nm minus background (row H): 0.09971
KYSE450 cells; [5]
  absorbance 490 nm, single well: 0.127 and 0.1396 and 0.1367
  mean absorbance 490 nm (row G): 0.1344
  mean absorbance 490 nm minus background (row H): 0.08257
other
  melting point: 146 to 149 °C

## Brc1ccccc1Cn1cc(-c2cccc(Nc3ncnc4cc5c(cc34)OCCOCCOCCO5)c2)nn1 [compound 3s]
H1650 cells
  IC50: 17.1 ± 1.64 µM
H1975 cells
  IC50: > 50 µM
SHEE cells
  IC50: 14.2 ± 0.94 µM
KYSE70 cells
  IC50: 9.35 ± 0.89 µM
KYSE410 cells; [1]
  IC50: 19.2 ± 1.22 µM
KYSE450 cells
  IC50: 23.4 ± 1.13 µM
other
  melting point: 161 to 164 °C

## COc1cccc(Cn2cc(-c3cccc(Nc4ncnc5cc6c(cc45)OCCOCCOCCO6)c3)nn2)c1 [compound 3t]
H1650 cells
  IC50: 21 ± 1.91 µM
H1975 cells
  IC50: 20 ± 1.52 µM
SHEE cells
  IC50: 33.3 ± 1.99 µM
KYSE70 cells
  IC50: > 50 µM
KYSE410 cells; [1]
  IC50: > 50 µM
KYSE450 cells
  IC50: 45.6 ± 2.01 µM
other
  melting point: 131 to 134 °C

## Brc1cc(Br)cc(Cn2cc(-c3cccc(Nc4ncnc5cc6c(cc45)OCCOCCOCCO6)c3)nn2)c1 [compound 3u]
H1650 cells
  IC50: > 50 µM
H1975 cells
  IC50: > 50 µM
SHEE cells
  IC50: > 50 µM
KYSE70 cells
  IC50: > 50 µM
KYSE410 cells; [1]
  IC50: > 50 µM
KYSE450 cells
  IC50: > 50 µM
other
  melting point: 151 to 154 °C

## Fc1ccc(CCn2cc(-c3cccc(Nc4ncnc5cc6c(cc45)OCCOCCOCCO6)c3)nn2)cc1 [compound 3v]
H1650 cells
  IC50: 11.6 ± 0.96 µM
H1975 cells
  IC50: 11.1 ± 0.95 µM
SHEE cells
  IC50: 8.26 ± 0.71 µM
KYSE70 cells
  IC50: 6.93 ± 0.37 µM
KYSE70 cells; KYSE70, concentration 12.5
  blank-corrected absorbance 490 nm relative to control (fraction): 0.0977
  inhibition (1 minus fraction of control): 0.9023
KYSE70 cells; KYSE70, concentration 25
  blank-corrected absorbance 490 nm relative to control (fraction): 0.03951
  inhibition (1 minus fraction of control): 0.9605
KYSE70 cells; KYSE70, concentration 50
  blank-corrected absorbance 490 nm relative to control (fraction): 0.1249
  inhibition (1 minus fraction of control): 0.8751
KYSE70 cells; KYSE70, concentration 100
  blank-corrected absorbance 490 nm relative to control (fraction): 0.0961
  inhibition (1 minus fraction of control): 0.9039
KYSE410 cells; [1]
  IC50: 21.6 ± 1.35 µM
KYSE410 cells; KYSE410, concentration 12.5
  blank-corrected absorbance 490 nm relative to control (fraction): 1.2383
  inhibition (1 minus fraction of control): -0.2383
KYSE410 cells; KYSE410, concentration 25
  blank-corrected absorbance 490 nm relative to control (fraction): 0.4202
  inhibition (1 minus fraction of control): 0.5798
KYSE410 cells; KYSE410, concentration 50
  blank-corrected absorbance 490 nm relative to control (fraction): 0.1986
  inhibition (1 minus fraction of control): 0.8014
KYSE410 cells; KYSE410, concentration 100
  blank-corrected absorbance 490 nm relative to control (fraction): -0.03723
  inhibition (1 minus fraction of control): 1.037
KYSE450 cells
  IC50: 11 ± 0.97 µM
KYSE450 cells; [2]
  absorbance 490 nm, single well: 0.3527 and 0.3885 and 0.4267 and 0.4169
  mean absorbance 490 nm (row G): 0.3962
  mean absorbance 490 nm minus background (row H): 0.3414
KYSE450 cells; [3]
  absorbance 490 nm, single well: 0.1525 and 0.1448 and 0.156 and 0.143 and 0.153
  mean absorbance 490 nm (row G): 0.1499
  mean absorbance 490 nm minus background (row H): 0.09506
KYSE450 cells; [4]
  absorbance 490 nm, single well: 0.0873 and 0.0943 and 0.1023 and 0.0955
  mean absorbance 490 nm (row G): 0.09485
  mean absorbance 490 nm minus background (row H): 0.04005
KYSE450 cells; [5]
  absorbance 490 nm, single well: 0.0657 and 0.0611 and 0.0638 and 0.0596 and 0.0609
  mean absorbance 490 nm (row G): 0.06222
  mean absorbance 490 nm minus background (row H): 0.00742
other
  melting point: 110 to 113 °C

## CC(=O)O[C@H]1C(=O)[C@@]2(C)[C@H]([C@H](OC(=O)c3ccccc3)[C@]3(O)C[C@H](OC(=O)[C@H](O)[C@@H](NC(=O)c4ccccc4)c4ccccc4)C(C)=C1C3(C)C)[C@]1(OC(C)=O)CO[C@@H]1C[C@@H]2O [taxol, reference compound]
KYSE410 cells; KYSE 410, MTT, resistance-inducing drug (taxol), read-out: 48 h IC50
  IC50: 0.0524 ± 0.00345 µM
KYSE70TR cells; 24 h, read-out: 24 h IC50
  IC50: 4.92 ± 0.274 µM
KYSE70TR cells; 48 h, read-out: 48 h IC50
  IC50: 1.12 ± 0.0352 µM
KYSE410TR cells; 24 h, read-out: 24 h IC50
  IC50: 6.4 ± 0.43 µM
KYSE410TR cells; 48 h, read-out: 48 h IC50
  IC50: 1.71 ± 0.05 µM
KYSE450TR cells; 24 h, read-out: 24 h IC50
  IC50: 0.266 ± 0.0661 µM
KYSE450TR cells; 48 h, read-out: 48 h IC50
  IC50: 0.12 ± 0.0301 µM
